US20240368214A1, “POSITIVE NMDA-MODULATING COMPOUNDS AND METHODS OF USE THEREOF” (SAGE THERAPEUTICS, INC., priority 2021, published 2024)

Molecular target: T1, recombinant human GluN1/GluN2A receptor (Homo sapiens, UniProt Q05586+Q12879)
T1 construct: expressed in transfected cells; host or cells: HEK293, tetracycline-inducible expression
Experiment: Whole-cell patch clamp of mammalian cells (Syncropatch 384i), NMDA modulation
Type: cell-based
Conditions: Table B-2, HEK293 cells, human GluN1/GluN2A, glutamate 1 μM / glycine 100 μM, -80 mV, peak amplitude increase; for EC50: read-out: EC50
Description: Whole-Cell Patch Clamp of Mammalian Cells (Syncropatch 384i (Nanion Technologies))
Whole-cell patch clamp electrophysiology was used to investigate the effects of compounds on GluN1/GluN2A N-methyl-D-aspartate (NMDA) glutamate receptors expressed in mammalian cells.
Human embryonic kidney (HEK293) cells expressing the recombinant human GluN1/GluN2A receptor under the control of a tetracycline-inducible expression system were used. Cells were maintained in Dulbecco's Modified Eagle's Medium (DMEM) with 1% glutamine, 10% Tetracycline System Approved fetal bovine serum (FBS), and NMDA inhibitors. Cells were cultured in a humidified 5% CO2 incubator at 37° C. Cells were induced with 50 ng/ml tetracycline 18-24 hours prior to testing. A cocktail of channel blockers was added to the media to prevent cell death.
Cells were 60-80% confluent at the time of harvest. Cells were detached from the flask TrypLE Enzyme Express (Thermo Fisher) at 37° C., and then cold extracellular solution was added to the flask, followed by incubation at 4° C. and then trituration of the cells. The cell solution was then placed on a shaker on the Syncropatch platform at 10° C. with a shake speed of a minimum 200 rpm for at least 30 minutes prior to testing.
Extracellular (EC) solution (in mM) —140 NaCl, 4 KCl, 5 CaCl2, 10 HEPES, 5 Glucose, pH 7.4 with NaOH. All external solutions contained 0.2% DMSO and 0.01% Kolliphor® EL (C5135, Sigma) throughout the experiment.
Intracellular (IC) solution (in mM) —120 CsF, 10 mM EGTA, 10 NaCl, 10 HEPES, 4 NaATP, 2 MgCl2, pH 7.2 with CsOH.
First, the DMSO Master Plate was prepared, in which the DMSO stock of each test compound was serially diluted in 100% DMSO to 1000× the final assay concentration. Immediately prior to assay testing, the compounds were diluted 1:100 by transferring solutions from the DMSO Mast Plate to the Intermediate Plate pre-filled with EC solution using a Biomek FX automated liquid handling system. Compounds were then diluted further with extracellular solution into two pre-incubation plates—1) compound from the Intermediate Plate was mixed with EC solution at a 1:5 dilution to create a 2× Compound Pre-Incubation Plate which was diluted a further 1:2 when added to the Syncropatch for the initial compound pre-incubation. And 2) compound from the Intermediate plate was mixed with EC solution at a 1:10 Dilution to create the 1× Compound Pre-Incubation Plate, which was used for subsequent compound pre-incubations. Finally, a Compound+Agonist Plate was prepared by mixing compound from the 2× Compound Pre-Incubation Plate with 2× concentration of co-agonists in a 1:1 ratio.
Each experiment sequentially included cell catching, sealing, whole-cell formation, liquid application, recording and data acquisition. Whole-cell patch clamp recordings were performed using multi-hole high resistance chips on the SyncroPatch 384i (Nanion Technologies). A steady-state voltage pulse at -80 mV was applied throughout the assay and a 10 second recording window was triggered around 1 second prior to application of co-agonists. Currents were leak corrected and sampled at 5 kHz.
A fast application was used, in which 5 μl co-agonist was rapidly applied at a speed of 30 μl/s and then rapidly removed from the well. To test for modulator activity, the co-agonists glutamate (1 μM) and glycine (100 μM) were applied three times to show activation reproducibility, followed by 120 seconds pre-incubation of test compound alone. The test compound was then re-applied in the presence of co-agonists two times. This was followed by application of the agonist alone, although test compound may not be fully washed from the well prior to this step. Finally, a saturating concentration of co-agonists (glutamate 100 μM/glycine 100 μM) was applied.
The voltage protocol generation data collection and analysis were performed on PatchControll384 and DataControll384. […]

T1 sequence (Q12879 23-1464, other chains not shown): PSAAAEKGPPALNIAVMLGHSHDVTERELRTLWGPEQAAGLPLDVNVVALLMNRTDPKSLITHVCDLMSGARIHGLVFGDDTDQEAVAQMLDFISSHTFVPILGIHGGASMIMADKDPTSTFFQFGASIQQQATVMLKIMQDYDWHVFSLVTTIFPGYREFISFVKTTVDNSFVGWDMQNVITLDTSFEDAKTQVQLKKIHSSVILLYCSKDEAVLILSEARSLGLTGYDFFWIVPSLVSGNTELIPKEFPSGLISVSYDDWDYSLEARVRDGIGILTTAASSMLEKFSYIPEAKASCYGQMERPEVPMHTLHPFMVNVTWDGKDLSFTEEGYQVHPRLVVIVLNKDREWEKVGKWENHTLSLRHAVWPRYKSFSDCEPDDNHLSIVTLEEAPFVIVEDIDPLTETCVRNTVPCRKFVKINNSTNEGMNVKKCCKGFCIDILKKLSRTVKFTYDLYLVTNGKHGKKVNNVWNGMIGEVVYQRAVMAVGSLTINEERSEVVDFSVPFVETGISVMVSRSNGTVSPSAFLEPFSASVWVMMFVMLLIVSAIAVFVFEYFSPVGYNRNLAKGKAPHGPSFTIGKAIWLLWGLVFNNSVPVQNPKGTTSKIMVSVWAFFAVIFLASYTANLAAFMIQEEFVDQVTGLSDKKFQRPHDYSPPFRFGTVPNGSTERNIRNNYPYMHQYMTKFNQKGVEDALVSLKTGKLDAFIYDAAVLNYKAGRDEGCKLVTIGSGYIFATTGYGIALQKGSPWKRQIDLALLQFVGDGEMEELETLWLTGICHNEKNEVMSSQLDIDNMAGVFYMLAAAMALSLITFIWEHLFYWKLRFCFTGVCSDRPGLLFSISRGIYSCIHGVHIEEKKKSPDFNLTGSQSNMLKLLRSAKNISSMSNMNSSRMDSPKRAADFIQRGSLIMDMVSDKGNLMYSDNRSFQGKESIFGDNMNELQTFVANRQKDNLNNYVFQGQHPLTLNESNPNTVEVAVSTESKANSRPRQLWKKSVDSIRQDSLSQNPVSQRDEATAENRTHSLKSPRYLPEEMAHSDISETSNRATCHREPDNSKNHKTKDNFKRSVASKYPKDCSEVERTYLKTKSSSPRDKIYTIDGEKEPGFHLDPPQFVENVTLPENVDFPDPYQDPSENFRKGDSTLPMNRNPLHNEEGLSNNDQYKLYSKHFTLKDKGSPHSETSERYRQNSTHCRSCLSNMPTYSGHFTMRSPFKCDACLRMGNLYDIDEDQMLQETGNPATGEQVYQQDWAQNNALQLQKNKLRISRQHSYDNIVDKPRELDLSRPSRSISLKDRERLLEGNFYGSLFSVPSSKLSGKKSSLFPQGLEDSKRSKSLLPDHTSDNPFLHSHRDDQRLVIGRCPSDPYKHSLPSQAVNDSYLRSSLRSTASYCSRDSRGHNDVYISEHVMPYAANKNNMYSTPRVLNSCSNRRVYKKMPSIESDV

CC[C@]1(O)CC[C@@]2(C)[C@@H](CC[C@H]3[C@@H]4[C@H]5C[C@H]5[C@H]([C@H](C)CC[C@@](C)(O)C(F)(F)F)[C@@]4(C)CC[C@@H]32)C1 [Compound B-7, (2S,4aS,4bS,6aR,7S,7aR,8aS,8bS,8cR,10aS)-2-ethyl-4a, 6a-dimethyl-7-((2R,5R)-6,6,6-trifluoro-5-hydroxy-5-methylhexan-2-yl)octadecahydrocyclopropa[4,5]cyclopenta[1,2-a]phenanthren-2-ol]
Emax: 100 to 200%
EC50: 100 to 500 nM

CC[C@]1(O)CC[C@@]2(C)[C@@H](CC[C@@H]3[C@@H]2CC[C@@]2(C)[C@H]3C[C@H]3C[C@]32[C@H](C)CCCC(C)(C)O)C1 [Compound B-8, (2aS,4S,6aS,6bS,8aS,8bS,9aS,10aS,10bR)-4-ethyl-8b-((R)-6-hydroxy-6-methylheptan-2-yl)-6a,8a-dimethyloctadecahydrocyclopropa[3,4]cyclopenta[1,2-a]phenanthren-4-ol]
Emax: 100 to 200%
EC50: > 1000 nM

CC[C@]1(O)CC[C@@]2(C)[C@@H](CC[C@@H]3[C@@H]2CC[C@@]2(C)[C@H]3C[C@H]3C[C@]32[C@H](C)CC[C@](C)(O)C(F)(F)F)C1 [Compound B-10, (2aS,4S,6aS,6bS,8aS,8bS,9aS,10aS,10bR)-4-ethyl-6a,8a-dimethyl-8b-((2R,5S)-6,6,6-trifluoro-5-hydroxy-5-methylhexan-2-yl)octadecahydrocyclopropa[3,4]cyclopenta[1,2-a]phenanthren-4-ol]
Emax: 100 to 200%
EC50: 1 to 100 nM

CC[C@]1(O)CC[C@@]2(C)[C@@H](CC[C@@H]3[C@@H]2CC[C@@]2(C)[C@H]3C[C@H]3C[C@]32[C@H](C)CC[C@@](C)(O)C(F)(F)F)C1 [Compound B-11, (2aS,4S,6aS,6bS,8aS,8bS,9aS,10aS,10bR)-4-ethyl-6a,8a-dimethyl-8b-((2R,5R)-6,6,6-trifluoro-5-hydroxy-5-methylhexan-2-yl)octadecahydrocyclopropa[3,4]cyclopenta[1,2-a]phenanthren-4-ol]
Emax: 100 to 200%
EC50: 1 to 100 nM

CC[C@]1(O)CC[C@@]2(C)[C@@H](CC[C@H]3[C@@H]4[C@@H](C)C[C@H]([C@H](C)CCCC(C)(C)O)[C@@]4(C)CC[C@@H]32)C1 [Compound B-12, (3S,5S,8R,9S,10S,13R,14S,15S,17R)-3-ethyl-17-((R)-6-hydroxy-6-methylheptan-2-yl)-10,13,15-trimethylhexadecahydro-1H-cyclopenta[a]phenanthren-3-ol]
Emax: 100 to 200%
EC50: 1 to 100 nM

CC[C@]1(O)CC[C@@]2(C)[C@@H](CC[C@H]3[C@@H]4[C@@H](C)C[C@H]([C@H](C)CC[C@@](C)(O)C(F)(F)F)[C@@]4(C)CC[C@@H]32)C1 [Compound B-13, (3S,5S,8R,9S,10S,13R,14S,15S,17R)-3-ethyl-10,13,15-trimethyl-17-((2R,5R)-6,6,6-trifluoro-5-hydroxy-5-methylhexan-2-yl)hexadecahydro-1H-cyclopenta[a]phenanthren-3-ol]
Emax: > 200%
EC50: 100 to 500 nM

CC[C@]1(O)CC[C@@]2(C)[C@@H](CC[C@H]3[C@@H]4[C@@H](C)C[C@H]([C@H](C)CC[C@](C)(O)C(F)(F)F)[C@@]4(C)CC[C@@H]32)C1 [Compound B-14, (3S,5S,8R,9S,10S,13R,14S,15S,17R)-3-ethyl-10,13,15-trimethyl-17-((2R,5S)-6,6,6-trifluoro-5-hydroxy-5-methylhexan-2-yl)hexadecahydro-1H-cyclopenta[a]phenanthren-3-ol]
Emax: > 200%
EC50: 1 to 100 nM

CC[C@]1(O)CC[C@@]2(C)[C@@H](CC[C@H]3[C@@H]4[C@H](C)C[C@H]([C@H](C)CC[C@](C)(O)C(F)(F)F)[C@@]4(C)CC[C@@H]32)C1 [Compound B-15, (3S,5S,8R,9S,10S,13R,14S,15R,17R)-3-ethyl-10,13,15-trimethyl-17-((2R,5S)-6,6,6-trifluoro-5-hydroxy-5-methylhexan-2-yl)hexadecahydro-1H-cyclopenta[a]phenanthren-3-ol]
Emax: 100 to 200%
EC50: 1 to 100 nM

CC[C@]1(O)CC[C@@]2(C)[C@@H](CC[C@H]3[C@@H]4[C@H](C)C[C@H]([C@H](C)CC[C@@](C)(O)C(F)(F)F)[C@@]4(C)CC[C@@H]32)C1 [Compound B-16, (3S,5S,8R,9S,10S,13R,14S,15R,17R)-3-ethyl-10,13,15-trimethyl-17-((2R,5R)-6,6,6-trifluoro-5-hydroxy-5-methylhexan-2-yl)hexadecahydro-1H-cyclopenta[a]phenanthren-3-ol]
Emax: 100 to 200%
EC50: 100 to 500 nM

CC[C@]1(O)CC[C@@]2(C)[C@@H](CC[C@H]3[C@@H]4[C@H](C5CC5)C[C@H]([C@H](C)CCCC(C)(C)O)[C@@]4(C)CC[C@@H]32)C1 [Compound B-17, (3S,5S,8R,9S,10S,13R,14S,15S,17R)-15-cyclopropyl-3-ethyl-17-((R)-6-hydroxy-6-methylheptan-2-yl)-10,13-dimethylhexadecahydro-1H-cyclopenta[a]phenanthren-3-ol]
Emax: 100 to 200%
EC50: 100 to 500 nM

CC[C@]1(O)CC[C@@]2(C)[C@@H](CC[C@H]3[C@@H]4[C@H](C)C[C@H]([C@H](C)CCCC(C)(C)O)[C@@]4(C)CC[C@@H]32)C1 [Compound B-18, (3S,5S,8R,9S,10S,13R,14S,15R,17R)-3-ethyl-17-((R)-6-hydroxy-6-methylheptan-2-yl)-10,13,15-trimethylhexadecahydro-1H-cyclopenta[a]phenanthren-3-ol]
Emax: 100 to 200%
EC50: 1 to 100 nM

CC[C@]1(O)CC[C@@]2(C)[C@@H](CC[C@H]3[C@@H]4[C@@H](C5CC5)C[C@H]([C@H](C)CCCC(C)(C)O)[C@@]4(C)CC[C@@H]32)C1 [Compound B-19, (3S,5S,8R,9S,10S,13R,14S,15R,17R)-15-cyclopropyl-3-ethyl-17-((R)-6-hydroxy-6-methylheptan-2-yl)-10,13-dimethylhexadecahydro-1H-cyclopenta[a]phenanthren-3-ol]
Emax: 100 to 200%
EC50: 100 to 500 nM

CC[C@]1(O)CC[C@@]2(C)C(=CC[C@H]3[C@@H]4[C@@H]5C[C@@H]5[C@H]([C@H](C)CCCC(C)(C)O)[C@@]4(C)CC[C@@H]32)C1 [Compound B-20, (2S,4aR,4bS,6aR,7S,7aS,8aR,8bS,8cR)-2-ethyl-7-((R)-6-hydroxy-6-methylheptan-2-yl)-4a,6a-dimethyl-1,2,3,4,4a,4b,5,6,6a,7,7a,8,8a,8b,8c,9-hexadecahydrocyclopropa[4,5]cyclopenta[1,2-a]phenanthren-2-ol]
Emax: 100 to 200%
EC50: 1 to 100 nM

CC[C@]1(O)CC[C@@]2(C)C(=CC[C@H]3[C@@H]4[C@H](C)C[C@H]([C@H](C)CCCC(C)(C)O)[C@@]4(C)CC[C@@H]32)C1 [Compound B-21, (3S,8R,9S,10R,13R,14S,15R,17R)-3-ethyl-17-((R)-6-hydroxy-6-methylheptan-2-yl)-10,13,15-trimethyl-2,3,4,7,8,9,10,11,12,13,14,15,16,17-tetradecahydro-1H-cyclopenta[a]phenanthren-3-ol]
EC50: 1 to 100 nM
